# Results published in US20230212146A1, “TRIARYLPYRIDINE COMPOUNDS AND USE THEREOF FOR TREATING CANCER” (INSTITUT NATIONAL DE LA SANTEET DE LA RECHERCHE …, priority 2020, published 2023).
# Tested on: U2OS expressing Galectin3-mCherry cells
# Test: Lysosomal membrane permeabilization (LMP), quantification of Galectin 3 puncta
# Assay type: cell-based, human
# Settings: compound alone, without chloroquine, 24 h; 2 μM of 1a, 1 μM of 1b, 1 μM of 1c
# Method: The data are presented as the mean percentage of 15 values from 5 randomly chosen area in each of the three independent experiments. Ordinate: Percentage of cells with Galectin3 puncta.
# Lysosomal membrane damage was assessed thanks to U2OS expressing Galectin3-mCherry cells. […] Cells were then washed with PBS, fixed with 4% (v/v) paraformaldehyde for 10 min at room temperature and then nucleic were counterstained for 15 min with Hoechst 33258. Image acquisition was made with a Leica DMI8 epifluorescence microscope, with a ×20 objective (NA 0.40) equipped with a digital CMOS camera (Hamamatsu photonics) and filter bloc for detection of phase contrast and blue (exc: 325-375 nm/em: 435-485 nm) and red (exc: 541-551 nm/em: 565-605 nm) fluorescence. Each image was collected with identical exposure times and scaled equally. Five images were acquired for each condition and then analyzed thanks to ImageJ software (Schneider et al., 2012, 9(7): 671-675) in order to count manually the number of cells, and automatically the number of Galectin3 punctae within each cell by using the “Find Maxima” tool.
row,SMILES,percentage of cells with Gal3 puncta
1,CSc1ccc(-c2cc(-c3ccc(-n4cc(CCCN5CCN(C)CC5)nn4)cc3)nc(-c3ccc(-n4cc(CCCN5CCN(C)CC5)nn4)cc3)c2)cc1 [Compound 1b],31%
2,CSc1ccc(-c2cc(-c3ccc(-n4cc(CCCN5CCCC5)nn4)cc3)nc(-c3ccc(-n4cc(CCCN5CCCC5)nn4)cc3)c2)cc1 [Compound 1a],26%
3,CSc1ccc(-c2cc(-c3ccc(-n4cc(CCN5CCN(C)CC5)nn4)cc3)nc(-c3ccc(-n4cc(CCN5CCN(C)CC5)nn4)cc3)c2)cc1 [Compound 1c],25%

# Same assay, conditions: with 25 μM chloroquine, 24 h; 2 μM of 1a, 1 μM of 1b, 1 μM of 1c
row,SMILES,percentage of Gal3 puncta positive cells
1,CSc1ccc(-c2cc(-c3ccc(-n4cc(CCCN5CCN(C)CC5)nn4)cc3)nc(-c3ccc(-n4cc(CCCN5CCN(C)CC5)nn4)cc3)c2)cc1 [Compound 1b],56%
2,CSc1ccc(-c2cc(-c3ccc(-n4cc(CCCN5CCCC5)nn4)cc3)nc(-c3ccc(-n4cc(CCCN5CCCC5)nn4)cc3)c2)cc1 [Compound 1a],57%
3,CSc1ccc(-c2cc(-c3ccc(-n4cc(CCN5CCN(C)CC5)nn4)cc3)nc(-c3ccc(-n4cc(CCN5CCN(C)CC5)nn4)cc3)c2)cc1 [Compound 1c],45%

# Tested on: HeLa cells
# Test: MTT cell viability assay
# Assay type: cell-based, human
# Settings: 24 h treatment, mean of 4 independent experiments in quadruplicate
# Method: HeLa cells were treated with 1 μM to 10 μM concentrations of compounds 20A (▾), 1a (grey ▴), 1b (●) and 1c (▪) for 24h. Cell viability was assessed by the MMT assay. Plotted are mean±SD of one representative experiment each performed in quadruplicate. IC50 is scored for each compound from 4 independent experiments performed in quadruplicate. Ordinate: Percentage of HeLa cell viability. Abscissa: Concentrations of compounds 20A, 1a, 1b and 1c.
# MTT assay was used to monitor cell viability in HeLa cells subjected to different treatments. Briefly, cells were seeded in a 96-well plate (4×10^3 cells/well). After 24 h of treatment of cells with drug, MTT was added to each well to a final concentration of 0.5 mg/ml during 3 h at 37° C. The supernatant of cells was then removed, and 100 μl of DMSO was added per well. The absorbance in each well was measured at 570 nm and 630 nm using a Flexstation 3 microplate reader (Molecular Devices). 4 independent experiences were conducered, each performed in quadruplicate. To determine the IC50 of compounds 20A, 1a, 1b and 1c, a non-linear regression curve was fit using GraphPad Prism software.
row,SMILES,IC50
1,CSc1ccc(-c2cc(-c3ccc(-n4cc(CCCN5CCN(C)CC5)nn4)cc3)nc(-c3ccc(-n4cc(CCCN5CCN(C)CC5)nn4)cc3)c2)cc1 [Compound 1b],3.15 µM
2,CSc1ccc(-c2cc(-c3ccc(-n4cc(CCCN5CCCC5)nn4)cc3)nc(-c3ccc(-n4cc(CCCN5CCCC5)nn4)cc3)c2)cc1 [Compound 1a],4.34 µM
3,CSc1ccc(-c2cc(-c3ccc(-n4cc(CCN5CCN(C)CC5)nn4)cc3)nc(-c3ccc(-n4cc(CCN5CCN(C)CC5)nn4)cc3)c2)cc1 [Compound 1c],3.62 µM

# Tested on: F21T oligonucleotide (human telomeric intramolecular quadruplex)
# Test: FRET melting analysis, G-quadruplex stabilization
# Assay type: binding
# Settings: compounds at 1-10 μM, 0.2 μM F21T, 10 mM KCl, 90 mM LiCl, pH 7.2
# Method: Ordinate: melting temperature (Tm) in Celsius scale (° C.). Abscissa (from left to right): (i) Compounds 1a at 10 μM, 5 μM, 2.5 μM, 1 μM; (ii) Compounds 1b at 10 μM, 5 μM, 2.5 μM, 1 μM; (iii) Compounds 1c at 10 μM, 5 μM, 2.5 μM, 1 μM.
# FRET melting experiments were conducted using the F21T oligonucleotide.
row,SMILES,stabilization of the F21T quadruplex (melting temperature Tm)
1,CSc1ccc(-c2cc(-c3ccc(-n4cc(CCCN5CCN(C)CC5)nn4)cc3)nc(-c3ccc(-n4cc(CCCN5CCN(C)CC5)nn4)cc3)c2)cc1 [Compound 1b],stabilize an intramolecular quadruplex
2,CSc1ccc(-c2cc(-c3ccc(-n4cc(CCCN5CCCC5)nn4)cc3)nc(-c3ccc(-n4cc(CCCN5CCCC5)nn4)cc3)c2)cc1 [Compound 1a],stabilize an intramolecular quadruplex
3,CSc1ccc(-c2cc(-c3ccc(-n4cc(CCN5CCN(C)CC5)nn4)cc3)nc(-c3ccc(-n4cc(CCN5CCN(C)CC5)nn4)cc3)c2)cc1 [Compound 1c],stabilize an intramolecular quadruplex
